# Target: T1, enzyme ACAT-1 (Homo sapiens, UniProt P35610)
# T1 construct: endogenous in cells; host or cells: HepG2
# T1 sequence (P35610 1-550): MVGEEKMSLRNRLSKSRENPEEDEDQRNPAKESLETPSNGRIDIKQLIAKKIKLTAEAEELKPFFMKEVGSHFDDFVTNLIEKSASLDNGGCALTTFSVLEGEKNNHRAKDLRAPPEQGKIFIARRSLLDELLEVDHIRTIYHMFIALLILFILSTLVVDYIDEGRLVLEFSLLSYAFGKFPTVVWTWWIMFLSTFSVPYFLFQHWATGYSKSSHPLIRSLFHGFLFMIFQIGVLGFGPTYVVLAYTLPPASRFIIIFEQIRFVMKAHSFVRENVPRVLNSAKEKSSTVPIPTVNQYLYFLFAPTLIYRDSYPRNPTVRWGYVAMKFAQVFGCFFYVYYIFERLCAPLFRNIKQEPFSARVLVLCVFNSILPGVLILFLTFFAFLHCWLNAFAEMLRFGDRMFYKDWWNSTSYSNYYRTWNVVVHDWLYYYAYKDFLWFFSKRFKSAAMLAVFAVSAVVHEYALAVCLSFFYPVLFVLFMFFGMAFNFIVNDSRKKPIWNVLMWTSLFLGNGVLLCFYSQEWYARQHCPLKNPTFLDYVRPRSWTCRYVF
# Experiment: HepG2 NBD-cholesterol fluorescence test for inhibitory activity towards the enzyme ACAT-1 (SOAT-1)
# Format: cell-based
# Details: not given
# Procedure: The compounds (I) according to the invention, and also the pharmaceutically acceptable salts, solvates and/or hydrates thereof, have inhibitory properties on the enzyme SOAT-1. This inhibitory activity on the enzyme SOAT-1 is measured according to a HepG2 primary enzymatic test, as described in Example 15.
# The compounds of formula (I) according to the invention were subjected to a test for evaluating their inhibitory activity towards the enzyme ACAT-1, inspired by the following publication: “Identification of ACAT1- and ACAT2-specific inhibitors using a novel, cell based fluorescence assay: individual ACAT uniqueness”, J. Lipid. Res. (2004) vol. 45, pages 378-386.
# The principle of this test is based on the use of NBD-cholesterol, a cholesterol analogue whose fluorescence depends on its environment. When this molecule is in a polar environment, it is weakly fluorescent, whereas in a non-polar environment, it is strongly fluorescent. Free NBD-cholesterol becomes inserted in cell membranes and is weakly fluorescent in this polar environment. When NBD-cholesterol is esterified with ACAT, the NBD-cholesterol ester enters non-polar lipid droplets and is then strongly fluorescent.
# The method below is applied: HepG2 cells are incubated in the presence of NBD-cholesterol (1 μg/ml) and of the test compound of formula (I) in black transparent-bottomed 96-well plates, at a rate of 30 000 cells per well. After incubation for 6 hours at 37° C. under 5% CO2, the medium is removed by turning upside-down and the cells are washed with twice 100 μl of PBS. After addition of 50 μl of lysis buffer (10 mM NaPO4, 1% Igepal), the plates are shaken for 5 minutes and the fluorescence is read (excitation at 490 nm, emission at 540 nm) on a Fusion machine (Perkin-Elmer).
row,Structure (SMILES),IC50
1,"CC(=O)N1CCC2(CC1)C(=O)N(CC(=O)Nc1c(C(C)C)cccc1C(C)C)C(=O)N2c1ccc(C)cc1 [Compound 1, 2-(8-acetyl-2,4-dioxo-1-p-tolyl-1,3,8-triazaspiro[4.5]dec-3-yl)-N-(2,6-diisopropylphenyl)acetamide]",1600 nM
2,"Cc1ccc(N2C(=O)N(CC(=O)Nc3c(C(C)C)cccc3C(C)C)C(=O)C23CCN(Cc2ccccc2)CC3)cc1 [Compound 4, 2-(8-benzyl-2,4-dioxo-1-p-tolyl-1,3,8-triazaspiro[4.5]dec-3-yl)-N-(2,6-diisopropylphenyl)acetamide]",5.8 nM
3,"Cc1ccc(N2C(=O)N(CC(=O)Nc3c(C(C)C)cccc3C(C)C)C(=O)C23CCN(C(=O)c2ccccc2)CC3)cc1 [Compound 3, 2-(8-benzoyl-2,4-dioxo-1-p-tolyl-1,3,8-triazaspiro[4.5]dec-3-yl)-N-(2,6-diisopropylphenyl)acetamide]",86 nM
4,"Cc1ccc(N2C(=O)N(CC(=O)Nc3c(C(C)C)cccc3C(C)C)C(=O)C23CCN(C)CC3)cc1 [Compound 5, N-(2,6-diisopropylphenyl)-2-(8-methyl-2,4-dioxo-1-p-tolyl-1,3,8-triazaspiro[4.5]dec-3-yl)acetamide]",20 nM
5,"Cc1ccc(N2C(=O)N(CC(=O)Nc3c(C(C)C)cccc3C(C)C)C(=O)C23CCN(C(=O)OC(C)(C)C)CC3)cc1 [Compound 2, 3-[(2,6-diisopropylphenylcarbamoyl)methyl]-2,4-dioxo-1-p-tolyl-1,3,8-triazaspiro[4.5]decane-8-carboxylic acid tert-butyl ester]",29 nM

# Same assay, conditions: HepG2 cells, NBD-cholesterol 1 μg/ml, incubation 6 hours at 37° C., fluorescence read (490/540 nm); read-out: IC50
row,Structure (SMILES),IC50
1,"Cc1ccc(N2C(=O)N(CC(=O)Nc3c(C(C)C)cccc3C(C)C)C(=O)C23CCOCC3)cc1 [Compound 9, N-(2,6-diisopropylphenyl)-2-(2,4-dioxo-1-p-tolyl-8-oxa-1,3-diazaspiro[4.5]dec-3-yl)acetamide]",0.4 nM
2,"CCc1cccc(CC)c1NC(=O)CN1C(=O)N(c2ccc(C)cc2)C2(CCOCC2)C1=O [Compound 11, N-(2,6-diethylphenyl)-2-(2,4-dioxo-1-p-tolyl-8-oxa-1,3-diazaspiro[4.5]dec-3-yl)acetamide]",9.4 nM
3,"Cc1ccc(N2C(=O)N(CC(=O)Nc3c(C(C)C)cccc3C(C)C)C(=O)C23CCC(O)CC3)cc1 (stereo not drawn) [Compound 6, N-(2,6-Diisopropylphenyl)-2-(8-hydroxy-2,4-dioxo-1-p-tolyl-1,3-diazaspiro[4.5]dec-3-yl)acetamide]",6.4 nM
4,"Cc1ccc(N2C(=O)N(CC(=O)Nc3c(C(C)C)cccc3C(C)C)C(=O)C23CCC(F)(F)CC3)cc1 [Compound 8, 2-(8,8-difluoro-2,4-dioxo-1-p-tolyl-1,3-diazaspiro[4.5]dec-3-yl)-N-(2,6-diisopropylphenyl)acetamide]",1.5 nM
5,"Cc1ccc(N2C(=O)N(CC(=O)Nc3c(C(C)C)cccc3C(C)C)C(=O)C23CCSCC3)cc1 [Compound 7, N-(2,6-diisopropylphenyl)-2-(2,4-dioxo-1-p-tolyl-8-thia-1,3-diazaspiro[4.5]dec-3-yl)acetamide]",1.8 nM

# Tested on: not given
# Experiment: not given
# Details: not given
row,Structure (SMILES),melting point
1,"CC(=O)N1CCC2(CC1)C(=O)N(CC(=O)Nc1c(C(C)C)cccc1C(C)C)C(=O)N2c1ccc(C)cc1 [Compound 1, 2-(8-acetyl-2,4-dioxo-1-p-tolyl-1,3,8-triazaspiro[4.5]dec-3-yl)-N-(2,6-diisopropylphenyl)acetamide]",136 to 138 °C
2,"Cc1ccc(N2C(=O)N(CC(=O)Nc3c(C(C)C)cccc3C(C)C)C(=O)C23CCC(O)CC3)cc1 (stereo not drawn) [Compound 6, N-(2,6-Diisopropylphenyl)-2-(8-hydroxy-2,4-dioxo-1-p-tolyl-1,3-diazaspiro[4.5]dec-3-yl)acetamide]",142 to 144 °C

# Reference: US20120045500A1, “NOVEL DIOXO-IMIDAZOLIDINE DERIVATIVES, WHICH INHIBIT THE ENZYME SOAT-1, AND PHARMACEUTICAL AND COSMETIC COMPOSITIONS CONTAINING THEM” (GALDERMA RESEARCH & DEVELOPMENT, priority 2009, published 2012)
